From US10167262B2, “Herbicidal substituted 3-arylpyrazoles” (FMC CORPORATION, priority 2014, dated 2019)

Legend:
Format in all cases: in vivo
[1] = tested on: cocklebur (common cocklebur, Xanthium strumarium); assay: Test C postemergence greenhouse test, plant response rating 0-100; conditions: for Plant response rating, Cocklebur: scale 0 to 100
In short: (§1)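 Formulated compounds applied postemergence; plants 1- to 4-leaf stage. Evaluated visually vs. untreated controls after roughly two weeks (13–15 d) under greenhouse conditions; 100 denotes complete control.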

[2] = tested on: green foxtail (Setaria viridis); assay: as above; conditions: for Plant response rating, Foxtail, Green: scale 0 to 100
In short: as §1

[3] = tested on: downy bromegrass (Bromus tectorum); assay: as above; conditions: for Plant response rating, Bromegrass, Downy: scale 0 to 100
In short: as §1

[4] = tested on: canarygrass (Phalaris minor); assay: as above; conditions: for Plant response rating, Canarygrass: scale 0 to 100
In short: as §1

[5] = tested on: bermudagrass (Cynodon dactylon); assay: as above; conditions: for Plant response rating, Bermudagrass: scale 0 to 100
In short: as §1

[6] = tested on: woolly cupgrass (Eriochloa villosa); assay: as above; conditions: for Plant response rating, Cupgrass, Woolly: scale 0 to 100
In short: as §1

[7] = tested on: goosegrass (Eleusine indica); assay: as above; conditions: for Plant response rating, Goosegrass: scale 0 to 100
In short: as §1

[8] = tested on: deadnettle (henbit deadnettle, Lamium amplexicaule); assay: as above; conditions: for Plant response rating, Deadnettle: scale 0 to 100
In short: as §1

[9] = tested on: surinam grass (Brachiaria decumbens); assay: as above; conditions: for Plant response rating, Surinam Grass: scale 0 to 100
In short: as §1

rice (Oryza sativa) = assay: Test B flooded paddy test, plant response rating 0-100; conditions: Flood, 250 g ai/ha; scale 0 to 100 (0 no effect, 100 complete control); 13 to 15 days
In short: (§2)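 Flooded 3 cm over soil; compound into paddy water; depth kept constant. Greenhouse 13–15 d.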

[10] = tested on: ducksalad (Heteranthera limosa); assay: as above; conditions: Flood, 250 g ai/ha; scale 0 to 100 (0 no effect, 100 complete control); 13 to 15 days
In short: as §2

[11] = tested on: sedge, umbrella (small-flower umbrella sedge, Cyperus difformis); assay: as above; conditions: Flood, 250 g ai/ha; scale 0 to 100 (0 no effect, 100 complete control); 13 to 15 days
In short: as §2

[12] = tested on: barnyardgrass (Echinochloa crus-galli); assay: as above; conditions: Flood, 250 g ai/ha; scale 0 to 100 (0 no effect, 100 complete control); 13 to 15 days
In short: as §2

Compound	Plant response rating (0 to 100), Cocklebur ([1]; 62 g ai/ha)	Plant response rating (0 to 100), Cocklebur ([1]; 125 g ai/ha)	Plant response rating (0 to 100), Foxtail, Green ([2]; 62 g ai/ha)	Plant response rating (0 to 100), Foxtail, Green ([2]; 125 g ai/ha)	Plant response rating, Foxtail, Green ([2]; 250 g ai/ha)	Plant response rating (0 to 100), Bromegrass, Downy ([3]; 62 g ai/ha)	Plant response rating (0 to 100), Bromegrass, Downy ([3]; 125 g ai/ha)	Plant response rating, Bromegrass, Downy ([3]; 250 g ai/ha)	Plant response rating (0 to 100), Canarygrass ([4]; 62 g ai/ha)	Plant response rating (0 to 100), Canarygrass ([4]; 125 g ai/ha)	Plant response rating, Canarygrass ([4]; 250 g ai/ha)	Plant response rating (0 to 100), Bermudagrass ([5]; 62 g ai/ha)	Plant response rating (0 to 100), Bermudagrass ([5]; 125 g ai/ha)	Plant response rating, Bermudagrass ([5]; 250 g ai/ha)	Plant response rating (0 to 100), Cupgrass, Woolly ([6]; 62 g ai/ha)	Plant response rating (0 to 100), Cupgrass, Woolly ([6]; 125 g ai/ha)	Plant response rating, Cupgrass, Woolly ([6]; 250 g ai/ha)	Plant response rating (0 to 100), Goosegrass ([7]; 62 g ai/ha)	Plant response rating (0 to 100), Goosegrass ([7]; 125 g ai/ha)	Plant response rating, Goosegrass ([7]; 250 g ai/ha)	also measured
Cn1cc(C(=O)c2ccccc2)c(-c2cc(Br)cc(Br)c2)n1 [Compound 53]	5	10	0	0	0	0	0	0	0	0	0	5	5	5	5	5	5	5	5	5	Plant response rating, Cocklebur ([1]; 250 g ai/ha): 10; Plant response rating, Cocklebur ([1]; 500 g ai/ha): 15; Plant response rating, Foxtail, Green ([2]; 500 g ai/ha): 0; Plant response rating, Bromegrass, Downy ([3]; 500 g ai/ha): 0; Plant response rating, Canarygrass ([4]; 500 g ai/ha): 0; Plant response rating, Bermudagrass ([5]; 500 g ai/ha): 5; Plant response rating, Cupgrass, Woolly ([6]; 500 g ai/ha): 5; Plant response rating, Goosegrass ([7]; 500 g ai/ha): 5; Plant response rating (0 to 100), Deadnettle ([8]; 62 g ai/ha): 0; Plant response rating (0 to 100), Deadnettle ([8]; 125 g ai/ha): 0; Plant response rating, Deadnettle ([8]; 250 g ai/ha): 0; Plant response rating, Deadnettle ([8]; 500 g ai/ha): 0; Plant response rating (0 to 100), Surinam Grass ([9]; 62 g ai/ha): 0; Plant response rating (0 to 100), Surinam Grass ([9]; 125 g ai/ha): 0; Plant response rating, Surinam Grass ([9]; 250 g ai/ha): 0; Plant response rating, Surinam Grass ([9]; 500 g ai/ha): 0; Plant response rating, Rice (rice (Oryza sativa)): 0; Plant response rating, Ducksalad [10]: 0; Plant response rating, Sedge, Umbrella [11]: 40; Plant response rating, Barnyardgrass [12]: 0
Fc1ccccc1NN=C(c1ccccc1)c1c[nH]nc1-c1cc(Cl)cc(Cl)c1 [Compound 57]	70	70	0	0	0	0	0	0	0	0	0	0	0	5	0	5	5	0	0	0	Plant response rating (0 to 100), Cocklebur ([1]; 31 g ai/ha): 10; Plant response rating, Cocklebur ([1]; 250 g ai/ha): 70; Plant response rating (0 to 100), Foxtail, Green ([2]; 31 g ai/ha): 0; Plant response rating (0 to 100), Bromegrass, Downy ([3]; 31 g ai/ha): 0; Plant response rating (0 to 100), Canarygrass ([4]; 31 g ai/ha): 0; Plant response rating (0 to 100), Bermudagrass ([5]; 31 g ai/ha): 0; Plant response rating (0 to 100), Cupgrass, Woolly ([6]; 31 g ai/ha): 0; Plant response rating (0 to 100), Goosegrass ([7]; 31 g ai/ha): 0; Plant response rating (0 to 100), Deadnettle ([8]; 31 g ai/ha): 0; Plant response rating (0 to 100), Deadnettle ([8]; 62 g ai/ha): 0; Plant response rating (0 to 100), Deadnettle ([8]; 125 g ai/ha): 0; Plant response rating, Deadnettle ([8]; 250 g ai/ha): 0; Plant response rating (0 to 100), Surinam Grass ([9]; 62 g ai/ha): 0; Plant response rating (0 to 100), Surinam Grass ([9]; 125 g ai/ha): 0; Plant response rating, Surinam Grass ([9]; 250 g ai/ha): 0; Plant response rating, Rice (rice (Oryza sativa)): 0; Plant response rating, Ducksalad [10]: 0; Plant response rating, Sedge, Umbrella [11]: 75; Plant response rating, Barnyardgrass [12]: 0
Fc1cccc(NN=C(c2ccccc2)c2c[nH]nc2-c2cc(Cl)cc(Cl)c2)c1 [Compound 58]	60	75	0	0	0	0	0	0	0	0	0	0	0	0	0	0	0	0	0	0	Plant response rating, Cocklebur ([1]; 250 g ai/ha): 80; Plant response rating, Cocklebur ([1]; 500 g ai/ha): 95; Plant response rating, Foxtail, Green ([2]; 500 g ai/ha): 30; Plant response rating, Bromegrass, Downy ([3]; 500 g ai/ha): 0; Plant response rating, Canarygrass ([4]; 500 g ai/ha): 0; Plant response rating, Bermudagrass ([5]; 500 g ai/ha): 10; Plant response rating, Cupgrass, Woolly ([6]; 500 g ai/ha): 0; Plant response rating, Goosegrass ([7]; 500 g ai/ha): 5; Plant response rating (0 to 100), Deadnettle ([8]; 62 g ai/ha): 0; Plant response rating (0 to 100), Deadnettle ([8]; 125 g ai/ha): 0; Plant response rating, Deadnettle ([8]; 250 g ai/ha): 0; Plant response rating, Deadnettle ([8]; 500 g ai/ha): 0; Plant response rating (0 to 100), Surinam Grass ([9]; 62 g ai/ha): 0; Plant response rating (0 to 100), Surinam Grass ([9]; 125 g ai/ha): 0; Plant response rating, Surinam Grass ([9]; 250 g ai/ha): 0; Plant response rating, Surinam Grass ([9]; 500 g ai/ha): 0; Plant response rating, Rice (rice (Oryza sativa)): 0; Plant response rating, Ducksalad [10]: 0; Plant response rating, Sedge, Umbrella [11]: 0; Plant response rating, Barnyardgrass [12]: 0
Clc1cc(Cl)cc(-c2n[nH]cc2C(=NNc2ccccc2Cl)c2ccccc2)c1 [Compound 66]	40	90	0	0	0	0	0	0	0	0	0	0	0	0	0	0	0	0	0	0	Plant response rating, Cocklebur ([1]; 500 g ai/ha): 90; Plant response rating, Foxtail, Green ([2]; 500 g ai/ha): 0; Plant response rating, Bromegrass, Downy ([3]; 500 g ai/ha): 0; Plant response rating, Canarygrass ([4]; 500 g ai/ha): 0; Plant response rating, Bermudagrass ([5]; 500 g ai/ha): 0; Plant response rating, Cupgrass, Woolly ([6]; 500 g ai/ha): 0; Plant response rating, Goosegrass ([7]; 500 g ai/ha): 0; Plant response rating (0 to 100), Deadnettle ([8]; 62 g ai/ha): 0; Plant response rating (0 to 100), Deadnettle ([8]; 125 g ai/ha): 0; Plant response rating, Deadnettle ([8]; 250 g ai/ha): 0; Plant response rating, Deadnettle ([8]; 500 g ai/ha): 5; Plant response rating (0 to 100), Surinam Grass ([9]; 62 g ai/ha): 0; Plant response rating (0 to 100), Surinam Grass ([9]; 125 g ai/ha): 0; Plant response rating, Surinam Grass ([9]; 250 g ai/ha): 0; Plant response rating, Surinam Grass ([9]; 500 g ai/ha): 0; Plant response rating, Rice (rice (Oryza sativa)): 0; Plant response rating, Ducksalad [10]: 0; Plant response rating, Sedge, Umbrella [11]: 70; Plant response rating, Barnyardgrass [12]: 0
